Measurements reported in PMC12763877 (Journal of Experimental & Clinical Cancer Research : CR, 2025).

Tests used:
[1] = system: STING signaling pathway in HUVEC; assay: Western blot of STING pathway proteins; assay type: cell-based, human; conditions: 48 h
Protocol: (§1) Total protein was extracted using RIPA lysis buffer (Solarbio, China) supplemented with phenylmethylsulfonyl fluoride (PMSF; Thermo Fisher Scientific, USA), protease inhibitor cocktail (Roche, Switzerland), and phosphatase inhibitor cocktail (Roche, Switzerland). Protein concentration was determined using a BCA protein assay kit (Thermo Fisher Scientific, USA). Equal amounts of protein were separated by 10% SDS-polyacrylamide gel electrophoresis (SDS-PAGE) and transferred onto nitrocellulose (NC) membranes. […] All primary antibodies were purchased from Cell Signaling Technology (CST, USA), except for GAPDH, which was obtained from Proteintech (Wuhan, China). After washing, the membranes were incubated with HRP-conjugated goat anti-rabbit or anti-mouse IgG secondary antibodies (Biosharp, China) for 1 h at room temperature. Protein bands were visualized using an enhanced chemiluminescence (ECL) detection system and scanned using a chemiluminescence imaging system.

HUVEC [2] = assay: Annexin V-FITC/PI apoptosis assay (flow cytometry); assay type: cell-based, human; conditions: 3.75-15 µM
From the text: The Annexin V-FITC/PI Apoptosis Detection Kit (Vazyme) was used to detect cell apoptosis according to the manufacturer’s instructions. Cells were stained with the kit and then analyzed using flow cytometry (Becton Dickinson [BD]).

HUVEC [3] = assay: Wound healing and Transwell assays; assay type: cell-based, human; conditions: candesartan 15, 7.5, 3.75 µM; sunitinib 2 µM; 48 h
Protocol: HUVEC cells were digested and inoculated into 6-well plates, with 1 × 10^5 cells added to each hole. On the second day, the gun head was drawn vertically along the edge of the upper lid of the hole plate. The cells were washed twice with PBS, the scratched cells were removed, and the serum free medium containing drugs was added. The photos were taken and recorded under the microscope for 0 h and cultured in a 5% CO2 incubator at 37℃. After 48 h, the sample was taken and photographed for recording. The cell scratch area was calculated with Image J software.
Migration assays were performed using the Transwell cell culture insert. HUVEC (3 × 10^4 cells) were suspended with 100µL serum-free medium containing different concentrations of compounds and placed in the upper layer of the Transwell cell culture insert, and 300µL medium containing 10% FBS was placed below the cell-permeable membrane. Following an incubation (48 h), the cells that had migrated through the membrane were stained with 0.2% crystal violet for 30 min and count.

HUVEC [4] = assay: ROS generation assay (DCFH-DA flow cytometry); assay type: cell-based, human; conditions: 3.75-15 µM
Protocol: Flow cytometry was performed to measure intracellular reactive oxygen species (ROS) levels using DCFH-DA (2’,7’-Dichlorodihydrofluorescein diacetate). Cells were collected and stained with DCFH-DA, followed by incubation at 37℃ for 30 min in the dark. Subsequently, the cell populations were analyzed by flow cytometry.

APLNR [5] = target: T1, APLNR (Homo sapiens, UniProt P35414); assay: Surface plasmon resonance (Biacore T200); conditions: APLNR on CM5 chip, 0.390625-12.5 µM, 1:1 kinetic binding model; read-out: equilibrium dissociation constant (KD)
T1 sequence (P35414 1-380): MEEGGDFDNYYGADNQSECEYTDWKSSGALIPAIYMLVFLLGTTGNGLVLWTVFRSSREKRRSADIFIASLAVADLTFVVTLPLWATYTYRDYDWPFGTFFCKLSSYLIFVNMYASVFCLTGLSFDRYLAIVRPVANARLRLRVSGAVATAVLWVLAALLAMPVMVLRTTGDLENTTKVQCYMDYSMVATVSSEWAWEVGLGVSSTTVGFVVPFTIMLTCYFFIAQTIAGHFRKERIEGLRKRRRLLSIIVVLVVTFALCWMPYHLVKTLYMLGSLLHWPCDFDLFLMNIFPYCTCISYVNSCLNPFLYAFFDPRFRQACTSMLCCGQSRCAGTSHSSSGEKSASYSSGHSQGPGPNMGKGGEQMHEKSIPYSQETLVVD
Protocol: SPR, which is a reliable method for analyzing real-time biomolecular interactions without labeling, was utilized to identify the binding affinity between APLNR and Candesartan. Candesartan is diluted with sterile phosphate-buffered saline (PBS). The APLNR protein is immobilized on a CM5 sensor chip via coupling, and then different concentrations of Candesartan (12.5 µM, 6.25 µM, 3.125 µM, 1.5625 µM, 0.78125 µM, 0.390625 µM) are injected. The Biacore T200 system can continuously and real-time monitor the changes in resonance units (RU), thereby obtaining the binding situation of candesartan with APLNR. The entire sensorgram is fitted using a 1:1 kinetic binding model, and the equilibrium dissociation constant (KD) is calculated.
To further analyze the binding capacity of candesartan to APLNR, we conducted surface plasmon resonance (SPR) analysis to determine the binding affinity between candesartan and APLNR. […] This gradual increase in RU values indicates specific binding of candesartan to APLNR.

APLNR [6] = target: T1, APLNR; assay: FLIPR Calcium 6 assay, inhibition of Apelin-13-induced calcium flux; assay type: cell-based; parameters: expressed in transfected cells; host or cells: HEK293
Protocol: HEK293 cells stably expressing APLNR were seeded in 96-well plates (20,000 cells/well) and loaded with Calcium 6 dye (Molecular Devices) for 2 h. Candidate compounds dissolved in DMSO were applied at 2 µM for 15 min, followed by stimulation with the endogenous agonist Apelin-13 (100 nM). Real-time intracellular calcium flux was quantified using FLIPR Tetra® System (470–495 nm excitation/515–575 nm emission).
These candidates were further evaluated for APLNR inhibitory activity at the concentration of 2 µM by using a FLIPR® Calcium 6 Assay Kit, which quantifies ligand-induced intracellular calcium flux.

HUVEC [7] = assay: DNA damage: γ-H2AX western blot and alkaline comet assay; assay type: cell-based, human
Protocol: as §1

In the case of `CCOc1nc2cccc(C(=O)O)c2n1Cc1ccc(-c2ccccc2-c2nnn[nH]2)cc1` [Compound A-2, Candesartan], the “STING, p-TBK1/TBK1 and p-IRF3/IRF3 levels” value [1] is reported as “dose-dependent upregulation”, the HUVEC apoptosis (HUVEC [2]) is reported as “no apoptosis was observed” and the “Migratory and invasive capacities of HUVECs” value (HUVEC [3]) is reported as “significantly reduced the migratory and invasive capacities of HUVECs”. For the same molecule, the ROS levels (HUVEC [4]) was “gradually increased with increasing drug concentration”, the Kd (APLNR [5]) was 1720 nM and the IC50 (APLNR [6]; FLIPR system, read-out: IC50, inhibition of Apelin-13-mediated calcium mobilization) was 1210 nM. For the same molecule, the inhibition at 2 µM (APLNR [6]; compound 2 µM, 15 min, then Apelin-13 100 nM, HEK293 cells stably expressing APLNR, read-out: Inhibition rate (2 μM, %)) was 72.3%, the “DNA fragmentation (comet assay)” value (HUVEC [7]) was “increased DNA fragmentation” and the γ-H2AX expression (HUVEC [7]; western blot, 48 h) was “dose-dependent increase”.
